Measured values published in article PMC6272428 (Molecules, 2015).

What was measured:
[1] = Pharmacokinetics of four compounds in plasma after oral administration of GSBXD and its plus-minus prescriptions in normal rats (LC-MS/MS); assay type: in vivo; details: Wistar, rat
Description: Plasma samples (200 μL) and IS solution (50 μL, 1215 ng/mL for diphenhydramine, 476 ng/mL for chloromycetin) were added in an Eppendorf tube, and this mixture was extracted with methanol (550 μL) by shaking on a vortex-mixer for 2 min, and centrifuged for 10 min at 13,000 rpm. The contents were evaporated to dryness on a rotary evaporator at 37 °C. The residue was reconstituted in methanol (100 μL) and centrifuged (13,000 rpm for 10 min). The supernatant was transferred to an auto sample vail and an aliquot of 5 μL was injected onto the UPLC-MS/MS system for analysis.
The developed and validated method was applied to the pharmacokinetic evaluation of the four compounds after oral administration of different fractions to normal rats (Figure 3).
Raw materials of Glycyrrhiza uralensis Fisch (Gancao), Paeonia lactiflora Pall (Baishao), Pinellia ternata Breit (Banxia) in a weight ratio of 10:15:9 (50, 75 and 45 g) were crushed into small pieces. The mixture was refluxed with 1.7 L water for 1 h and with 1.36 L water for 1 h. The filtrates were combined and concentrated below 70 °C to obtain a certain volume at the ratio of 1.5:1 (w/w, weight of all constituting herbs and the extract filtrates) under vacuum. Powder of Euphorbia kansui T. N. Liou ex T. P. Wang. […] The same method was used to prepare GSBXD minus Gancao (GSBXD-GC); GSBXD minus Gansui (GSBXD-GS); GSBXD minus Gancao and Gansui (GSBXD-GG); the extract of Gancao and Gansui (GG) and the extract of Gancao (GC). The extracts contained 19.21, 18.73, 46.53, 15.82 μg/mL of compounds 1–4 in GSBXD; 0, 0, 51.03, 17.88 μg/mL of compounds 1–4 in GSBXD-GC; 19.21, 18.73, 46.53, 15.82 μg/mL of compounds 1–4 in GSBXD-GS; 0, 0, 51.03, 17.88 μg/mL of compounds 1–4 in GSBXD-GG; 20.03, 17.09, 0, 0 μg/mL of compounds 1–4 in GG, 20.03, 17.09, 0, 0 μg/mL of compounds 1–4 in GC.
For pharmacokinetic studies, Wistar rats were divided into ten groups (n = 6 per group). Rats in the normal and model GSBXD groups were administered GSBXD at a dose of 15 mL/kg intragastrically. In the normal and model GSBXD-GC groups, GSBXD-GC (12 mL/kg) was administrated. In the normal and model GSBXD-GS groups, GSBXD-GS (15 mL/kg) was administrated. In the normal and model GSBXD-GC-GS groups, GSBXD-GC-GS (12 mL/kg) was administrated. In the normal and model GG groups, GG (7.5 mL/kg) was administrated. Blood samples were collected at specific time points before (0 min) and after oral administration (5, 10, 20, 40, 60, 120, 240, 360, 480, 600 and 1440 min). A total of 720 blood samples were collected. All the blood samples were immediately centrifuged at 2500 rpm for 10 min to obtain plasma, which was labeled and frozen at −80 °C until analysis. Blank plasma was obtained from the rats without oral administration and was used to investigate the assay development and validation.
To determine the pharmacokinetic parameters of compounds 1–4 in different groups, concentration–time data were analyzed by DAS 3.2 software (Mathematical Pharmacology Professional Committee of China, Shanghai, China, 2011). Data were expressed as the mean […] standard deviation (S.D.) with triplicate measurements. The identification of significances between different groups was carried out with Student’s t-test. A P value < 0.05 was considered statistically significant.

[2] = Stability of the four compounds in rat plasma QC samples (freeze-thaw, storage at −80 °C, autosampler); assay type: physicochemical; details: for Stability, Autosampler for 24 h, Accuracy: processed rat plasma, auto-sampler 4 °C for 24 h; for Stability, Freeze-thaw cycles, Accuracy / Stability, At −80 °C for a Month, Accuracy: rat plasma; for Stability, Freeze-thaw cycles, Accuracy: three freeze-thaw cycles −80 °C to 20 °C
Description: Stability of the four analytes during the sample storing and processing procedures was fully evaluated by analysis of QC samples.
Three QC samples (five samples for each) were tested for pre-treatment, post-treatment, three freeze-thaw cycles and long-term stabilities. Pre-treatment stability was assessed by exposing QC samples at room temperature for 4 h. Post-treatment stability was evaluated by placing QC samples in the auto-sampler at 4 °C for 24 h. For freeze–thaw cycle stability assessment, QC samples were repeatedly frozen and thawed for three cycles from −80 °C to 20 °C. […]

[3] = 7.5 mL/kg, group GG (extract of Gancao and Gansui), 7.5 mL/kg oral, normal rats, n = 6, mean ± S.D.
[4] = 15 mL/kg, group GSBXD, 15 mL/kg intragastrically, normal rats, n = 6, mean ± S.D.
[5] = 15 mL/kg, group GSBXD-GS (GSBXD minus Gansui), 15 mL/kg oral, normal rats, n = 6, mean ± S.D.
[6] = group GC (extract of Gancao), oral, normal rats, n = 6, mean ± S.D.
[7] = high QC concentration (1.23 × 10^3, 1.11 × 10^3, 1.14 × 10^3, 1.42 × 10^3 ng/mL for 1–4)
[8] = low QC concentration (1.91 × 10, 4.32, 1.78 × 10, 1.11 × 10 ng/mL for 1–4)
[9] = middle QC concentration (3.09 × 10^2, 1.38 × 10^2, 1.43 × 10^2, 1.77 × 10^2 ng/mL for 1–4)
[10] = 12 mL/kg, group GSBXD-GC (GSBXD minus Gancao), 12 mL/kg oral, normal rats, n = 6, mean ± S.D.
[11] = 12 mL/kg, group GSBXD-GG (GSBXD minus Gancao and Gansui), 12 mL/kg oral, normal rats, n = 6, mean ± S.D.

| AUC(0-t) [1, 3] | Cmax [1, 3] | Tmax [1, 3] | AUC(0-t) [1, 4] | Cmax [1, 4] | Tmax [1, 4] | half-life [1, 4] | AUC(0-t) [1, 5] | Cmax [1, 5] | Tmax [1, 5] | half-life [1, 5] | Stability, Autosampler for 24 h, Accuracy [2, 7] | Stability, Autosampler for 24 h, Accuracy [2, 8] | Stability, Autosampler for 24 h, Accuracy [2, 9] | Stability, Freeze-thaw cycles, Accuracy [2, 7] | Stability, Freeze-thaw cycles, Accuracy [2, 8] | Stability, Freeze-thaw cycles, Accuracy [2, 9] | Stability, At −80 °C for a Month, Accuracy [2, 7] | Stability, At −80 °C for a Month, Accuracy [2, 8] | Stability, At −80 °C for a Month, Accuracy [2, 9] | Compound | other results |
| --- | --- | --- | --- | --- | --- | --- | --- | --- | --- | --- | --- | --- | --- | --- | --- | --- | --- | --- | --- | --- | --- |
| 788 ± 110 ng·h/mL | 364 ± 46.2 ng/mL | 0.64 ± 0.34 h | 2630 ± 532 ng·h/mL | 503 ± 199 ng/mL | 0.33 h | 5.93 ± 2.67 h | 1280 ± 393 ng·h/mL | 214 ± 55.4 ng/mL | 1.67 ± 0.12 h | 11.6 ± 5.74 h | 87.36% | 93.94% | 92.23% | 94.33% | 98.83% | 91.02% | 98.18% | 89.99% | 91.37% | CC1(C)[C@@H](O[C@H]2O[C@H](C(=O)O)[C@@H](O)[C@H](O)[C@H]2O[C@@H]2O[C@H](C(=O)O)[C@@H](O)[C@H](O)[C@H]2O)CC[C@]2(C)[C@H]3C(=O)C=C4[C@@H]5C[C@@](C)(C(=O)O)CC[C@]5(C)CC[C@@]4(C)[C@]3(C)CC[C@@H]12 [Compound 1, glycyrrhizinic acid] | half-life [1, 3]: 9.29 ± 4.7 h; AUC(0-t) [1, 6]: 486 ± 136 ng·h/mL; Cmax [1, 6]: 147 ± 19.9 ng/mL; Tmax [1, 6]: 0.36 ± 0.16 h; half-life [1, 6]: 0.79 ± 0.39 h |
| 788 ± 110 ng·h/mL | 200 ± 42.4 ng/mL | 0.32 ± 0.27 h | 794 ± 142 ng·h/mL | 193 ± 84.5 ng/mL | 0.39 ± 0.14 h | 7.04 ± 2.99 h | 421 ± 222 ng·h/mL | 98.9 ± 26.8 ng/mL | 0.17 ± 0.11 h | 6.84 ± 3.11 h | 97.11% | 88.92% | 97.49% | 95.35% | – | 89.99% | 96.71% | 91.03% | 99.99% | O=C1C[C@@H](c2ccc(O[C@@H]3O[C@H](CO)[C@@H](O)[C@H](O)[C@H]3O)cc2)Oc2cc(O)ccc21 [Compound 2, liquiritin] | half-life [1, 3]: 12.9 ± 4.76 h; AUC(0-t) [1, 6]: 797 ± 174 ng·h/mL; Cmax [1, 6]: 139 ± 33.5 ng/mL; Tmax [1, 6]: 0.5 ± 0.18 h; half-life [1, 6]: 5.26 ± 1.93 h |
| – | – | – | 1110 ± 346 ng·h/mL | 255 ± 98 ng/mL | 0.33 ± 0.18 h | 8.06 ± 1.44 h | 514 ± 271 ng·h/mL | 142 ± 39.8 ng/mL | 0.28 ± 0.14 h | 9.07 ± 0.87 h | 99.91% | 97.15% | 91.22% | 98.33% | 93.49% | 102.34% | 88.48% | 101.5% | 79.13% | CC12CC(O)C3CC1(OC1OC(CO)C(O)C(O)C1O)C3(COC(=O)c1ccccc1)C(=O)O2 (stereo not drawn) [Compound 4, albiflorin] | AUC(0-t) [1, 10]: 619 ± 130 ng·h/mL; Cmax [1, 10]: 88.5 ± 18.3 ng/mL; Tmax [1, 10]: 0.81 ± 0.62 h; half-life [1, 10]: 7.74 ± 0.74 h; AUC(0-t) [1, 11]: 785 ± 158 ng·h/mL; Cmax [1, 11]: 113 ± 25.8 ng/mL; Tmax [1, 11]: 0.56 ± 0.27 h; half-life [1, 11]: 8.73 ± 0.98 h |

| Compound | AUC(0-t) [1, 3] | Cmax [1, 3] | Tmax [1, 3] | AUC(0-t) [1, 4] | Cmax [1, 4] | Tmax [1, 4] | half-life [1, 4] | AUC(0-t) [1, 5] | Cmax [1, 5] | Tmax [1, 5] | half-life [1, 5] | Stability, Autosampler for 24 h, Accuracy [2, 7] | Stability, Autosampler for 24 h, Accuracy [2, 8] | Stability, Autosampler for 24 h, Accuracy [2, 9] | Stability, Freeze-thaw cycles, Accuracy [2, 7] | Stability, Freeze-thaw cycles, Accuracy [2, 8] | Stability, Freeze-thaw cycles, Accuracy [2, 9] | Stability, At −80 °C for a Month, Accuracy [2, 7] | Stability, At −80 °C for a Month, Accuracy [2, 8] | Stability, At −80 °C for a Month, Accuracy [2, 9] | other results |
| --- | --- | --- | --- | --- | --- | --- | --- | --- | --- | --- | --- | --- | --- | --- | --- | --- | --- | --- | --- | --- | --- |
| C[C@@]12C[C@@]3(O)O[C@@H](O1)[C@]1(COC(=O)c4ccccc4)[C@H]3C[C@@]12O[C@@H]1O[C@H](CO)[C@@H](O)[C@H](O)[C@H]1O [Compound 3, paeoniflorin] | – | – | – | 825 ± 96 ng·h/mL | 82.8 ± 15.7 ng/mL | 0.81 ± 0.34 h | 12.6 ± 7.46 h | 910 ± 476 ng·h/mL | 101 ± 18 ng/mL | 1.33 ± 0.37 h | 7.9 ± 1.17 h | 104.13% | 98.03% | 91.28% | 91.57% | 87.63% | 92.10% | 89.55% | 87.54% | 95.32% | Tmax ([1]; 12 mL/kg): 0.5 ± 0.28 h; AUC(0-t) [1, 10]: 362 ± 40.4 ng·h/mL; Cmax [1, 10]: 74.1 ± 26 ng/mL; Tmax [1, 10]: 0.31 ± 0.07 h; half-life [1, 10]: 16 ± 2.62 h; AUC(0-t) [1, 11]: 659 ± 411 ng·h/mL; Cmax [1, 11]: 150 ± 24.5 ng/mL; half-life [1, 11]: 21.4 ± 8.85 h |
